ChEMBL document CHEMBL1135750, “Phenoxyphenyl sulfone N-formylhydroxylamines (retrohydroxamates) as potent, selective, orally bioavailable matrix metalloproteinase inhibitors” (J Med Chem, 2002)

Tests used:
[1] = Half life measured as t1/2 in hours after iv administration in cynomolgus monkey; assay type: ADME, organism-based, Macaca fascicularis; details: in vivo
[2] = AUC in monkey; assay type: ADME; set-up: concentration or dose not given beside the values; details: simiiformes, plasma
[3] = target: T1, Interstitial collagenase (Homo sapiens, UniProt P03956); assay: In vitro selective inhibition against matrix metalloprotease-1 (MMP-1) using a fluorimetric assay
T1 sequence (P03956 whole entry): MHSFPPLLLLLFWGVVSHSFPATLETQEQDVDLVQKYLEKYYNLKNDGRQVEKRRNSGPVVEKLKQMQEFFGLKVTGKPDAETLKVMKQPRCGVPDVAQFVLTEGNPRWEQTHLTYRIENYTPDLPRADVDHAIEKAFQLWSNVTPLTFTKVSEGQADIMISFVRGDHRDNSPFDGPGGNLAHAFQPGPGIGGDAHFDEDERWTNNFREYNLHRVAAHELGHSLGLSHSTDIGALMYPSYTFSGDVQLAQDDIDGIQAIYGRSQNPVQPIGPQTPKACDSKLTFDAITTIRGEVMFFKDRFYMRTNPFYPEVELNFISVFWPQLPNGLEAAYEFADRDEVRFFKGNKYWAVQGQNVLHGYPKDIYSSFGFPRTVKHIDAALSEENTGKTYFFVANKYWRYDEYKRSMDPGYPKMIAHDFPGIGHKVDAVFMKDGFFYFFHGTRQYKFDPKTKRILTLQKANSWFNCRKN

[4] = target: Matrix metalloproteinase-9 (Homo sapiens, UniProt P14780); assay: In vitro selective inhibition against Matrix metalloprotease-9 (MMP-9) using fluorimetric assay
Sequence of Matrix metalloproteinase-9 (P14780 whole entry): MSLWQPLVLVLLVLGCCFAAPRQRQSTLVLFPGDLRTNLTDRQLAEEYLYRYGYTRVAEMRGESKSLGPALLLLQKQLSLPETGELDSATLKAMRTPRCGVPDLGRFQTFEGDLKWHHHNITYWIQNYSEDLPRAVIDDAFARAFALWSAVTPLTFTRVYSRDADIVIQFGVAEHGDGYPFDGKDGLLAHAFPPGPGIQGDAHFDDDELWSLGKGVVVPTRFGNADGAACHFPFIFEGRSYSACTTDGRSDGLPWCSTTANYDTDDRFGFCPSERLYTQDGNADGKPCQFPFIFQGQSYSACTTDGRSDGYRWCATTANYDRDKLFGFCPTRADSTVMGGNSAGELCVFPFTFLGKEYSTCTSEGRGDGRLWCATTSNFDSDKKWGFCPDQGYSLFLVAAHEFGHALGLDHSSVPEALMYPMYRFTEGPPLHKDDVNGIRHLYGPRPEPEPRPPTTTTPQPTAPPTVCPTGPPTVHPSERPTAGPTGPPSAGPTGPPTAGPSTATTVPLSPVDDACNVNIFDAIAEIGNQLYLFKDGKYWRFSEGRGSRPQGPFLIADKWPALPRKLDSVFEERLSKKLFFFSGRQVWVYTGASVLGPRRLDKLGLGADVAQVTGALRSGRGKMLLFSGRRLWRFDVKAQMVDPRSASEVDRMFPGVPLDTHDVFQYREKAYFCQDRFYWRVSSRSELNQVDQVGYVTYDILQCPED

[5] = target: 72 kDa type IV collagenase (Homo sapiens, UniProt P08253); assay: In vitro selective inhibition against matrix metalloprotease-2 (MMP-2) using fluorimetric assay
Sequence of 72 kDa type IV collagenase (P08253 whole entry): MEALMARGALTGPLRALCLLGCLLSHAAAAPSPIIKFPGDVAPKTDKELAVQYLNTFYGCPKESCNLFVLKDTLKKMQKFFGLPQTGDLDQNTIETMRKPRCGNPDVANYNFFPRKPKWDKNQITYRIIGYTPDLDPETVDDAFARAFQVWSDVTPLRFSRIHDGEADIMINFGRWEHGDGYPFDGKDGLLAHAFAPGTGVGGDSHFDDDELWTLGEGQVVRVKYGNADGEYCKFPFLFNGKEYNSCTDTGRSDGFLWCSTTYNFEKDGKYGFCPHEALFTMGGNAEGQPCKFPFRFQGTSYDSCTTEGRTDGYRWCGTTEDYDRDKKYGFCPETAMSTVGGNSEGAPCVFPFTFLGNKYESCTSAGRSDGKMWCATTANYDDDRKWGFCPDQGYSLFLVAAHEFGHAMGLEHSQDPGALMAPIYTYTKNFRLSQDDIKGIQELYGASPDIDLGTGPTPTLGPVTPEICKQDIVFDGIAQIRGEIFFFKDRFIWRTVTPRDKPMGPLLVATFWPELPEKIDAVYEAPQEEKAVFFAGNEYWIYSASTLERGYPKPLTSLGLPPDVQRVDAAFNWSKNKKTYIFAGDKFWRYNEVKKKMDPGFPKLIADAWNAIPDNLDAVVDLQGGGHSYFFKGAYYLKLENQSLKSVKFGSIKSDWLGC

[6] = target: T2, Matrilysin (Homo sapiens, UniProt P09237); assay: Inhibition of Matrix metalloprotease-7 (MMP-7) in fluorimetric assay
T2 sequence (P09237 whole entry): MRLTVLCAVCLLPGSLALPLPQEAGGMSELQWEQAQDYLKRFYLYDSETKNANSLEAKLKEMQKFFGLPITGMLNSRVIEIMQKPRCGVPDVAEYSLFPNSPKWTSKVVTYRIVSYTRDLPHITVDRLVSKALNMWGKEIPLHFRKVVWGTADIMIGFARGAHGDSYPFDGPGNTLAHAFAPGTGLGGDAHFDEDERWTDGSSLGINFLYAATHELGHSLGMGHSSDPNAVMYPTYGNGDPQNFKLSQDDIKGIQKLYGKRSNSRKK

[7] = target: Neutrophil collagenase (Homo sapiens, UniProt P22894); assay: Inhibition of Matrix metalloprotease-8 (MMP-8) in fluorimetric assay
Sequence of Neutrophil collagenase (P22894 whole entry): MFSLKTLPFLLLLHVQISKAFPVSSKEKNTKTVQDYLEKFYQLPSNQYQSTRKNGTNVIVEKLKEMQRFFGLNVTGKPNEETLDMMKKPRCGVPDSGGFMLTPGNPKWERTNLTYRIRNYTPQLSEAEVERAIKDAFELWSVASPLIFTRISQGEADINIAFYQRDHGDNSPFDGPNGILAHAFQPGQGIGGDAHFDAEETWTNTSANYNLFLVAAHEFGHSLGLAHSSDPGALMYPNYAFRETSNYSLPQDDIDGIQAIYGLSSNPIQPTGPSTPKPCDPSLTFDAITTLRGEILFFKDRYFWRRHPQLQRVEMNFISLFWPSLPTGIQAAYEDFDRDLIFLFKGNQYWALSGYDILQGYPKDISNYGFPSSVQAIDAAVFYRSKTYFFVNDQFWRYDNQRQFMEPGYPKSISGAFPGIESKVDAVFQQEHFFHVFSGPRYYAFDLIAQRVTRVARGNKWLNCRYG

[8] = tested on: THP-1; assay: Selective inhibition of the cellular TNF alpha release from LPS-stimulated THP-1 cells; assay type: functional, cell-based; details: Homo sapiens

Compound C[C@@H]1OC(C)(C)OC1[C@@H](CS(=O)(=O)c1ccc(Oc2ccc(OC(F)(F)F)cc2)cc1)N(O)C=O (stereo not given in full) has a half-life [1] of 19.5 h, an AUC [2] of 21 µM·h and an IC50 [3] of over 50000 nM. The IC50 [4] was 1.1 nM and the IC50 [5] was 1.9 nM.

In the case of CN(CC(CS(=O)(=O)c1ccc(Oc2ccc(OC(F)(F)F)cc2)cc1)N(O)C=O)S(C)(=O)=O (stereo not given), the IC50 [3] is reported as 2000 nM, the IC50 [4] is reported as 1.7 nM and the IC50 [5] is reported as 12 nM.

O=CN(O)C(CS(=O)(=O)c1ccc(Oc2ccc(OC(F)(F)F)cc2)cc1)C(CO)CO (stereo not given) showed a half-life [1] of 1.9 h, an AUC [2] of 8 µM·h and an IC50 [3] of over 50000 nM. The IC50 [4] was 0.49 nM and the IC50 [5] was 2.8 nM.

Work on CSc1ccc(-c2ccc(S(=O)(=O)CC(CN3C(=O)NC(C)(C)C3=O)N(O)C=O)cc2)cc1 (stereo not given) yielded an IC50 [3] of 2.9 nM, an IC50 [4] of 1.1 nM and an IC50 [5] of 0.67 nM.

Work on CC1(C)OC[C@H]([C@@H](CS(=O)(=O)c2ccc(Oc3ccc(OC(F)(F)F)cc3)cc2)N(O)C=O)O1 (stereo in doubt; 19w) yielded an IC50 [3] of over 50000 nM, an IC50 [4] of 1.4 nM and an IC50 [5] of 25 nM.

In the case of O=CN(O)C(CS(=O)(=O)c1ccc(Oc2ccc(OC(F)(F)F)cc2)cc1)[C@H](O)CO (stereo not given in full), the AUC [2] is reported as 3 µM·h, the IC50 [3] is reported as over 50000 nM and the IC50 [4] is reported as 0.092 nM. For the same compound, the IC50 [5] was 0.36 nM.

CC1(C)NC(=O)N(CC(CS(=O)(=O)c2ccc(Oc3ccc(OC(F)(F)F)cc3)cc2)N(O)C=O)C1=O (stereo not given) gave an AUC [2] of 8 µM·h, an IC50 [3] of 820 nM and an IC50 [4] of 2 nM. The IC50 [5] was 1.3 nM.

With O=CN(O)C(CS(=O)(=O)c1ccc(Oc2ccc(OC(F)(F)F)cc2)cc1)CS(=O)(=O)N1CCOCC1 (stereo not given) the AUC [2] was 3 µM·h, the IC50 [3] was 2500 nM and the IC50 [4] was 0.86 nM. For the same compound, the IC50 [5] was 0.39 nM.

Work on CN1C(=O)N(CC(CS(=O)(=O)c2ccc(Oc3ccc(OC(F)(F)F)cc3)cc2)N(O)C=O)C(=O)C1(C)C (stereo not given) yielded a half-life [1] of 0.7 h, an AUC [2] of 1 µM·h and an IC50 [3] of over 50000 nM. The IC50 [5] was 1.8 nM.

Compound O=CN(O)C(COCCO)CS(=O)(=O)c1ccc(Oc2ccc(OC(F)(F)F)cc2)cc1 (stereo not given) has an IC50 [3] of over 50000 nM, an IC50 [4] of 0.3 nM and an IC50 [5] of 0.44 nM.

For CC1(C)NC(=O)N(CC(CS(=O)(=O)c2ccc(-c3ccc(OC(F)(F)F)cc3)cc2)N(O)C=O)C1=O (stereo not given), the AUC [2] was 5 µM·h, the IC50 [3] was 82 nM and the IC50 [4] was 0.34 nM. It also gave an IC50 [5] of 0.86 nM.

CC1(C)SCCN(S(=O)(=O)c2ccc(Oc3ccncc3)cc2)[C@H]1C(=O)NO [PRINOMASTAT] gave an IC50 [6] of 72 nM, an IC50 [7] of 0.54 nM and an IC50 [8] of 8600 nM.

In the case of O=CN(O)C(CCC(=O)N1CCOCC1)CS(=O)(=O)c1ccc(Oc2ccc(OC(F)(F)F)cc2)cc1 (stereo not given), the half-life [1] is reported as 8.6 h, the IC50 [3] is reported as over 50000 nM and the IC50 [4] is reported as 2 nM. The IC50 [5] was 2.6 nM.

With CN1C(=O)N(CC(CS(=O)(=O)c2ccc(Oc3ccc(Cl)cc3)cc2)N(O)C=O)C(=O)C1(C)C (stereo not given) the half-life [1] was 11.7 h, the AUC [2] was 13 µM·h and the IC50 [3] was 280 nM. For the same compound, the IC50 [4] was 1.4 nM and the IC50 [5] was 0.72 nM.

Compound CC1(C)NC(=O)N(CC(CS(=O)(=O)c2ccc(-c3ccc(C#N)cc3)cc2)N(O)C=O)C1=O (stereo not given) has a half-life [1] of 1.1 h, an IC50 [3] of 36 nM and an IC50 [4] of 4.1 nM. For the same compound, the IC50 [5] was 0.34 nM.

Work on CC1(C)OC[C@@H]([C@@H](CS(=O)(=O)c2ccc(Oc3ccc(OC(F)(F)F)cc3)cc2)N(O)C=O)O1 (stereo in doubt; 19x) yielded an IC50 [3] of over 50000 nM, an IC50 [4] of 480 nM and an IC50 [5] of 260 nM.

Cn1c(C(CS(=O)(=O)c2ccc(Oc3ccc(OC(F)(F)F)cc3)cc2)N(O)C=O)cc2ccccc21 (stereo not given) gave an IC50 [3] of over 50000 nM, an IC50 [4] of 12 nM and an IC50 [5] of 9.5 nM.

In the case of CC1(C)NC(=O)N(CC(CS(=O)(=O)c2ccc(-c3cccc(CC#N)c3)cc2)N(O)C=O)C1=O (stereo not given), the half-life [1] is reported as 0.5 h, the IC50 [3] is reported as 78 nM and the IC50 [4] is reported as 0.91 nM. It also gave an IC50 [5] of 0.35 nM.

CC1(C)OC[C@@H]([C@@H](CS(=O)(=O)c2ccc(Oc3ccc(OC(F)(F)F)cc3)cc2)N(O)C=O)O1 (stereo in doubt; 19v) showed an IC50 [3] of over 50000 nM, an IC50 [4] of 2.3 nM and an IC50 [5] of 6.3 nM.

Compound O=CN(O)C(CCc1ccc(C(=O)O)cc1)CS(=O)(=O)c1ccc(Oc2ccc(OC(F)(F)F)cc2)cc1 (stereo not given) has an AUC [2] of 16 µM·h, an IC50 [3] of over 50000 nM and an IC50 [4] of 0.53 nM. The IC50 [5] was 0.53 nM.

CNC(=O)[C@@H](NC(=O)[C@H](CC(C)C)[C@H](O)C(=O)NO)C(C)(C)C gave an IC50 [8] of 2100 nM.

With O=CN(O)C(CS(=O)(=O)c1ccc(Oc2ccc(OC(F)(F)F)cc2)cc1)C1CCCO1 (stereo not given) the AUC [2] was 26 µM·h, the IC50 [3] was over 50000 nM and the IC50 [4] was 0.32 nM. For the same compound, the IC50 [5] was 0.61 nM.
